Measured values as given in patent US20100227806A1, “Use Of A Ghrelin Agonist To Improve Catabolic Effects Of Glucocorticoid Treatment” (priority 2006, published 2010).

Tests used:
[1] = rat; cited from earlier work
[2] = Effects of pharmacological treatments on growth parameters in dexamethasone-treated young rats; format: in vivo, Sprague-Dawley rats; conditions: for Final Body Weight: prepubertal male rats, dexamethasone 40 μg/kg ip daily from day 23, A 80 nmoles/kg sc three times daily from day 30; for Final Body Weight / Final Nose-Anal Length / Lee Obesity Index / Growth Rate / Epididymal Fat Pads: mean ± SEM of eight animals; for Final Nose-Anal Length / Lee Obesity Index / Growth Rate / Epididymal Fat Pads: same regimen; for Growth Rate: slope of growth curve; for Epididymal Fat Pads: weight at sacrifice
Method: (§1) Thirty-two prepubertal male Sprague-Dawley rats approximately 21 days old and weighing between 45 and 55 grams, were obtained from Harlan, Italy (S. Pietro al Natisone, ITALY). During the study, the animals were maintained in accordance with the guidelines of the Italian Ministry of Health for the care and use of laboratory animals (Decreto legge 116/92). The animals were randomly divided into two treatment groups and kept in a controlled environment at a constant temperature of 21-23° C. with 12:12 light/dark exposure continuous period wherein the light exposure began at approximately 8:00 am and ended at approximately 8:00 pm. The animals were provided with water and food ad libitum consisting of an approximate 3200 calories/kg daily diet of standard pellet chow provided by Piccioni, Gessate-Milano, Italy (containing at least 19% protein, 3% fat and 56% carbohydrate).
(§2) Beginning on the 23rd day (i.e., the animals were 23 days old), 16 of the study animals were treated intraperitoneally (Ip) daily with 40 μg/kg of either saline or dexamethasone sodium phosphate (sold under the trademark Decadron® by Merck Pharmaceuticals, West Point, Pa.). Beginning on the 30th day (i.e., the animals were 30 days old), the subgroup of 16 studied animals was further divided into groups of 8 and treated subcutaneously three times daily (at approximately 9:00 am, 1:00 pm and 5:00 pm) with either 80 nmoles/kg of the preferred ghrelin analog [Aib^2, Glu^3(NH-hexyl)]hGhrelin(1-28)-NH2 (IPSEN, Milford, Mass.) dissolved in a sterile saline solution with 0.25% bovine serum albumin or vehicle (the saline-bovine serum albumin solution alone). This regimen continued for 24 days during which time the studied animals were weighed two times per week. At irregular intervals, the cumulative food intake for a 24-hour period of time was measured. Beginning on the 46th day (i.e., the animals were 46 days old), the length of the test and control animals from nose to anus was measured (hereinafter referred to as “the nose-anal length”). On the 47th day (i.e., the animals were 47 days old), all food was denied to the test subjects commencing at 8:00 am. Small samples of blood were taken via percutaneous puncture of the tail to assess blood glucose levels during the treatment period.
(§3) The test animals received two intravenous administrations of [Aib^2, Glu^3(NH-hexyl)]hGhrelin(1-28)-NH2 at approximately 9:00 am and 1:00 pm. The studied animals were sacrificed by rapid decapitation at approximately 2:00 pm, trunk blood collected for hormone level determinations, and the epididymal fat pads removed and weighed.
(§4) Unless otherwise stated, the results reported in FIGS. 3-6 are expressed as the mean±SEM of eight replicate test subjects. Data was analyzed for statistical significance by one-way ANOVA which determines the variation (variance) within the groups and how that variation translates into variation (i.e. differences) between the groups, taking into account how many subjects there are in each group. […] The linear correlation analysis was performed either by Pearson's parametric test or by Spearman's nonparametric test. A P value below 0.05 was considered significant.

[3] = Effects of pharmacological treatments on plasma hormones and glucose concentrations; format: in vivo, Sprague-Dawley rats; conditions: day 47, mean ± SEM of eight animals; for Glucose: at sacrifice; for Corticosterone / IGF-1 / Insulin: plasma at sacrifice
Method: as §1, §2, §3
Samples of trunk blood were taken from the test subjects via […]. The blood samples were collected in tubes containing EDTA, separated by centrifugation, and stored at −20° C. Plasma insulin, IGF-1, and corticosterone levels were all measured using commercial RIA kits (Insulin and Corticosterone kits were both obtained from ICN-Biomedicals, Asse-Relegem, BELGIUM and the rIGF-1 test kit was obtained from Mediagnostic GMbH, Tubingen, GERMANY). Glucose concentration was determined using the Glucotrend® Soft Test System blood glucose meter (Roche Diagnostics, Barcelona, SPAIN).
as §4

[4] = 24-h food intake and food efficiency in treated young rats; format: in vivo, Sprague-Dawley rats
From the text: FIG. 4. Panel A: the effect of the different pharmacological treatment on 24-h food intake expressed as a percent of the control value. Data represented the mean±SEM of nine determinations performed at irregular intervals from day 33 to day 47 after birth. Panel B: the effect of the different pharmacological treatments on food efficacy calculated as a ratio between food intake (g) and […] measured over the same time interval at different stages of growth. Data represents the meant SEM of eight rats. *P<0.05; **<0.01 vs SAL-treated rats (Dunnett's test). Panel C: the effect of the different pharmacological treatments on the cumulative food intake measured over the indicated time intervals at different stages of growth.
Beginning on the 23rd day (i.e., the animals were 23 days old), 16 of the study animals were treated intraperitoneally (Ip) daily with 40 μg/kg of either saline or dexamethasone sodium phosphate (sold under the trademark Decadron® by Merck Pharmaceuticals, West Point, Pa.). Beginning on the 30th day (i.e., the animals were 30 days old), the subgroup of 16 studied animals was further divided into groups of 8 and treated subcutaneously three times daily (at approximately 9:00 am, 1:00 pm and 5:00 pm) with either 80 nmoles/kg of the preferred ghrelin analog [Aib^2, Glu^3(NH-hexyl)]hGhrelin(1-28)-NH2 (IPSEN, Milford, Mass.) dissolved in a sterile saline solution with 0.25% bovine serum albumin or vehicle (the saline-bovine serum albumin solution alone). This regimen continued for 24 days during which time the studied animals were weighed two times per week. At irregular intervals, the cumulative food intake for a 24-hour period of time was measured. Beginning on the 46th day (i.e., the animals were 46 days old), the length of the test and control animals from nose to anus was measured (hereinafter referred to as “the nose-anal length”). […]
Food efficiency was calculated as the ratio between body weight gain (in grams) and food intake (in grams) measured over the same time interval.

Molecule: GHRP-6
- glucocorticoid-mediated GH-inhibition [1]: able to completely counteract

Molecule: [Aib^2, Glu^3(NH-hexyl)]hGhrelin(1-28)-NH2
- growth suppression induced by DEX ([2]; concomitant treatment with DEX, FIG. 3): reversed
- Final Body Weight [2]: 230.8 ± 4.8 g
- Final Nose-Anal Length [2]: 19.3 ± 0.1 cm
- Lee Obesity Index [2]: 318 ± 1.4
- Growth Rate [2]: 7.6 ± 0.3 g/day
- Epididymal Fat Pads [2]: 1.31 ± 0.07 g
- somatic growth as compared to SAL-treated rats ([2]; young male rats, FIG. 3, Dunnett's t test): significantly increased
- Glucose [3]: 122 ± 3 mg/dL
- Corticosterone [3]: 235 ± 23 ng/mL
- IGF-1 [3]: 1653 ± 87 ng/mL
- Insulin [3]: 40.4 ± 5.7 μIU/ml
- food efficiency (ratio body weight gain / food intake) vs saline treatment ([4]; FIG. 4B, two out of three determinations): increased
- cumulative 24-hour food intake vs saline-treated animals ([4]; after 10 days from beginning of dexamethasone treatment, FIG. 4A): increased
- decrease of food efficiency induced by dexamethasone ([4]; co-administration with dexamethasone, FIG. 4B): able to reverse

Molecule: C[C@@H]1C[C@H]2[C@@H]3CCC4=CC(=O)C=C[C@]4(C)[C@@]3(F)[C@@H](O)C[C@]2(C)[C@@]1(O)C(=O)CO [Dexamethasone, 9-fluoro-11β,17,21-trihydroxy-16a-methylpregna-1,4-diene-3,20-dione, reference compound]
- Final Body Weight [2]: 185.2 ± 4.2 g
- Final Nose-Anal Length [2]: 17.8 ± 0.2 cm
- Lee Obesity Index [2]: 321 ± 1.6
- Growth Rate [2]: 5.6 ± 0.2 g/day
- Epididymal Fat Pads [2]: 1.14 ± 0.06 g
- Glucose [3]: 107 ± 6 mg/dL
- Corticosterone [3]: 19 ± 2 ng/mL
- IGF-1 [3]: 1257 ± 112 ng/mL
- Insulin [3]: 50 ± 6 μIU/ml
